Experimental data reported in patent US20220304916A1, “MODIFIED BLACK SOLDIER FLY LARVAE OIL WITH MODIFIED LAURIC ACID FOR TREATMENT AGAINST BIOFILM FORMATION AND MICROORGANISM GROWTH” (BIO-BEE SDE ELIYAHU LTD, priority 2019, published 2022).

Tests used:
Assay type in all cases: cell-based
[1] = tested on: Streptococcus mutans (SM); assay: Viability on agar plates (MBC)
Experimental: (§1) MBSFL oil (converted, 225, BioBee Sde Eliyahu Ltd, lot 0095-0098.181210-181227) was compared to BSFL oil (before conversion, 215, BioBee Sde Eliyahu Ltd, lot 0030.111217), lauric acid 98% (Sigma-Aldrich, denoted LA) and chlorhexidine acetate (Steinberg, denoted CHX), were analyzed as antimicrobial and anti-biofilm-formation agents in vitro, with respect to Pseudomonas aeruginosa (Gram negative, denoted PA01), Staphylococcus aureus (ATCC, American Type Culture Collection) (Gram positive, denoted SA), Streptococcus mutans (ATCC) (Gram positive, denoted SM), Lactobacillus (ATCC) (Gram positive, denoted L), Candida albicans (ATCC) (yeast, denoted CA) and Candida glabrata (ATCC) (yeast, denoted CG).
(§2) Microbial stocks of the Biofilm Research Laboratory were grown from frozen stock: SM at overnight 37° C. in BHI (brain heart infusion) broth medium in an atmosphere of 5% CO2; L at 37° C. in MRS (de Man, Rogosa and Sharpe) broth medium in an atmosphere of 5% CO2; PAO1 and SA at 37° C. in TSB (Trypticase soy broth) medium; CA and CG at 37° C. in RPMI (Roswell Park Memorial Institute) medium.
(§3) BSFL oil and MBSFL oil were prepared in DDW by heating at 100° C. LA was prepared at 50% Ethanol/50% DDW (doubly distillated water) and heated constantly to prevent solidifying in the tube. Maximum concentration of tested agents was the same (2.7% of lauric acid content). CHX was prepared in DDW
(§4) To examine the effects of MBSFL oil on microorganism's viability, equal amounts (5 μl) of bacterial suspension exposed to each tested concentration of agent was plated on agar plates. Plates were incubated overnight at 37° C. Colony growth was recorded as non-affected by agent's viable bacteria. Minimal Bactericidal Concentration (MBC) was recorded as no colony growth. Minimal Fungicidal Concentration (MFC) was recorded as no fungal growth.

Lactobacillus (L) [2] = assay: Viability on agar plates (MBC)
Experimental: as §1, §2, §3, §4

[3] = tested on: Pseudomonas aeruginosa (PAO1); assay: Viability on agar plates (MBC)
Experimental: as §1, §2, §3, §4

[4] = tested on: Staphylococcus aureus (SA); assay: Viability on agar plates (MBC)
Experimental: as §1, §2, §3, §4

[5] = tested on: Streptococcus mutans (SM); assay: Planktonic growth, OD 595 nm after 24 h
Experimental: as §1, §2, §3
(§5) To examine the effects of MBSFL oil on microorganism's growth (planktonic conditions), serial 1:2 dilutions of each tested agent in appropriate medium (BSFL, MBSFL and LA from 2.7 to 0.04%; CHX from 20 μg/ml to 0.3 μg/ml) were prepared in a polystyrene flat-bottomed 96-well microplate. Wells with no compounds and those with bacteria served as positive controls. Wells with no bacteria and with compound served as blanks. An equal volume (100 μl) of the each tested bacterial and fungal suspension at optical density (OD)595=0.02 and 0.05, respectively, was added to each well. After a 24 h incubation, growth was monitored by recording the OD at 595 nm using a Genius plate reader Spectrophotometer (Tecan). The assay was performed in triplicates.

Lactobacillus (L) [6] = assay: Planktonic growth, OD 595 nm after 24 h
Experimental: as §1, §2, §3, §5

[7] = tested on: Pseudomonas aeruginosa (PAO1); assay: Planktonic growth, OD 595 nm after 24 h
Experimental: as §1, §2, §3, §5

Candida albicans (CA) [8] = assay: Planktonic growth, OD 595 nm after 24 h
Experimental: as §1, §2, §3, §5

[9] = tested on: Staphylococcus aureus (SA); assay: Planktonic growth, OD 595 nm after 24 h
Experimental: as §1, §2, §3, §5

Candida glabrata (CG) [10] = assay: Planktonic growth, OD 595 nm after 24 h
Experimental: as §1, §2, §3, §5

[11] = tested on: Streptococcus mutans (SM); assay: Biofilm formation, crystal violet staining; details: 24 h
Experimental: as §1, §2, §3
(§6) To examine the effects of MBSFL oil on biofilm formation by the microorganisms, assays for all of the tested agents were performed as described above except of growth medium used which was MRS/BHI supplemented with 1% sucrose and TSB/RPMI supplemented with 1% glucose. After incubation for 24 h, spent media and free-floating bacteria/fungi were removed by gentle aspiration and the wells were washed twice with phosphate-buffered saline (PBS, pH 7.4). The biofilm was then quantified by crystal violet staining. Briefly, 0.02% crystal violet was added into wells for 45 min, which were then washed twice with DDW to remove unbound dye. After adding 200 μl of 30% acetic acid into each well, the plate was shaken for 10 min to release the dye and the biofilm was quantified by measuring the absorbance at 595 nm using a Genius plate reader Spectrophotometer (Tecan). Assay was performed in triplicates.

[12] = tested on: Pseudomonas aeruginosa (PAO1); assay: Biofilm formation, crystal violet staining
Experimental: as §1, §2, §3, §6

Candida albicans (CA) [13] = assay: Biofilm formation, crystal violet staining; details: 24 h
Experimental: as §1, §2, §3, §6

[14] = tested on: Staphylococcus aureus (SA); assay: Biofilm formation, crystal violet staining; details: 24 h
Experimental: as §1, §2, §3, §6

Candida glabrata (CG) [15] = assay: Biofilm formation, crystal violet staining
Experimental: as §1, §2, §3, §6

Candida albicans (CA) [16] = assay: Viability on agar plates (MFC)
Experimental: as §1, §2, §3, §4

Candida glabrata (CG) [17] = assay: Viability on agar plates (MFC)
Experimental: as §1, §2, §3, §4

Q: Which results are given for CC(=O)O.CC(=O)O.NC(=N\CCCCCC/N=C(N)/N=C(\N)Nc1ccc(Cl)cc1)/N=C(\N)Nc1ccc(Cl)cc1 [CHX, chlorhexidine acetate]?
A: MBC [1]: 0.625 µg/mL; MBC (Lactobacillus (L) [2]): 2.5 µg/mL; MBC [3]: 20 µg/mL; MBC [4]: 10 µg/mL; dose inhibiting growth of SM [5]: 0.625 µg/mL; MIC (Lactobacillus (L) [6]): 2.5 µg/mL; dose of total inhibition of PAO1 growth [7]: 10 µg/mL; dose inhibiting growth of CA (Candida albicans (CA) [8]): 5 µg/mL; dose inhibiting growth of SA ([9]; planktonic, 24 h): 2.5 µg/mL; dose inhibiting growth of CG (Candida glabrata (CG) [10]): 2.5 µg/mL; dose inhibiting biofilm formation [11]: 0.625 µg/mL; dose of total inhibition of biofilm formation ([12]; PAO1 biofilm, 24 h): 10 µg/mL; dose inhibiting biofilm formation (Candida albicans (CA) [13]): 5 µg/mL; dose inhibiting biofilm formation [14]: 2.5 µg/mL; dose inhibiting biofilm formation (Candida glabrata (CG) [15]; 24 h): 2.5 µg/mL; MFC (Candida albicans (CA) [16]): 5 µg/mL; MFC (Candida glabrata (CG) [17]): 2.5 µg/mL

Q: Which results are given for CCCCCCCCCCCC(=O)O [LA, lauric acid]?
A: MBC [1]: 0.33%; MBC (Lactobacillus (L) [2]): 0.67%; Minimal Bactericidal Concentration (MBC) [3]: exerted MBC/MFC for all tested microbes, except PAO1; MBC [4]: 0.67%; MIC [5]: 0.33%; MIC (Lactobacillus (L) [6]): 0.33%; MIC (Candida albicans (CA) [8]): 1.35%; reduction of SA growth ([9]; lowest tested dose of 0.04%): 90%; MIC (Candida glabrata (CG) [10]): 2.7%; dose of total inhibition of biofilm formation [11]: 0.16%; effect on biofilm formation (in words) ([12]; all concentrations tested): dose-dependently increased biomass; dose at which biofilm formation was almost totally inhibited (Candida albicans (CA) [13]): 0.67%; dose at which biofilm formation was totally or almost totally inhibited [14]: 0.67%; effect on biofilm formation (in words) (Candida glabrata (CG) [15]): effective against biofilm formation of CG but with less impact; Minimal Fungicidal Concentration (MFC) (Candida albicans (CA) [16]): 2.7%; MFC (Candida glabrata (CG) [17]): 2.7%
